# According to publication PMC11791199 (Scientific Reports, 2025):
# “Also recorded” adds a separate entry of the source.
# Tests used:
# ClpC1 NTD K85A mutant = ClpC1 NTD K85A mutant (Mycobacterium tuberculosis, UniProt P9WPC9, K85A); format: binding
# ClpC1 NTD F80A mutant = ClpC1 NTD F80A mutant (Mycobacterium tuberculosis, UniProt P9WPC9, F80A); format: binding
smiles,measurement,setting,value
"CC1=C[C@@H](/C=C(\Cl)c2ccc(C(=O)O)cc2)[C@]2(C(=O)O)C=C[C@@H](CCOC(=O)c3ccc(NCc4ccccc4)cc3)C[C@@H]2C1 [F5, (2R,4aR,5S,8aR)-2-(2-((4-(benzylamino)benzoyl)oxy)ethyl)-5-((Z)-2-(4-carboxyphenyl)-2-chlorovinyl)-7-methyl-1,5,8,8a-tetrahydronaphthalene-4a(2H)-carboxylic acid]",binding by ITC,ClpC1 NTD K85A mutant,no binding could be observed; also recorded: no binding was observed
same,binding by ITC,ClpC1 NTD F80A mutant,no binding could be observed; also recorded: no binding was observed
